Values of other authors, collected in patent US20250161331A1, “ANTI-INFLAMMATORY DRUG-CANNABINOID-COMPRISING NANOEMULSIONS AND METHODS OF USING THE SAME” (SGN Nanopharma Inc., priority 2022, published 2025).
Where two headings read alike, the source gives them in different places.

## C=C(C)[C@@H]1CCC(C)=C[C@H]1c1c(O)cc(CCCCC)cc1O [CBD, Cannabidiol]
Cannabis oil formulations, same timeframe (3-7 days)
  CBD concentrations decreased: up to 38%
Solution as a tea, room temperature, 3-7 days
  CBD concentrations decreased: ≤ 50%
